Source: patent US20120202751A1, “METHODS OF MONITORING ENDOPLASMIC RETICULUM (ER) STRESS RESPONSE” (The Board of trustees of the Leland Stanford Junior …, priority 2009, published 2012)

Legend:
XBP1-luc activity [1] = assay: In vitro luciferase activity of cultured Hi and Lo primary tumors from Tag-Luc mice; format: cell-based; details: primary Tag-Luc tumors after 7-10 days of in vitro culture
Description: FIG. 3 (A) is a bar graph of in vitro luciferase activity of primary tumors from Tag-Luc mice with “Hi” or “Lo” in vivo bioluminesence or tumors from Tag mice after 7-10 days of in vitro culture. Luciferase activity was also measured following tunicamycin treatment. (B) Left panels: are photographs of Tag-Luc mice bearing tumors with synchronous Hi (dark outline in the upper panel) and Lo (light outlines) in vivo bioluminescence (overlays, lower panel). Right panels: are photographs, including bioluminescent overlay, of transplanted Hi (dark circle/arrow; upper left flank) and Lo (light circles/arrows) primary tumors from Tag-Luc mice 14 days after subcutaneously transplantation into four separate quadrants on the dorsal surface of syngeneic FVB mice. (C) is a bar graph of in vivo bioluminesence of primary and transplanted Hi and Lo tumors. Results are the average of four independent experiments.
Tumors isolated ex vivo from Tag-Luc transgenic mice had 14.5-fold greater luciferase activity than tumors isolated from control Tag transgenic mice (FIG. 2A, middle panel; p=0.0001; n=16 for Tag mice, n=33 for Tag-Luc mice). […] Luciferase activity was detected on a Monolight 2010 (Analytic Luminescence Laboratory, San Diego, Calif.).

ATF4-Luc = assay: ATF4-luc UPR reporter luciferase activity in HT1080 cells; format: cell-based, human; details: for UPR reporter activity, ATF4-luc construct: luciferase activity measured after 24 hours
Description: (§1) FIG. 1 (A) Upper Panel: is a schematic representation of the XBP1-luc reporter construct. Lower panel: is a bar graph of in vitro luciferase activity from different reporter constructs in response to different stresses. HT 1080 cells expressing either a XBP1-luc construct, or an ATF4 or CMV-driven luciferase gene were cultured in 10 μg/ml tunicamycin, glucose depletion, or severe hypoxia (<0.02% O2) for 24 hours to induce ER stress. (B) is a graphical representation of the incidence of breast carcinomas in Tag mice and Tag-Luc double transgenic mice. […] Tumor areas are outlined. Lower panel: are overlays of in vivo bioluminescence on the pictures in the middle panel. (D) is a series of fluorescent micrographs of tissue sections from tumors from Tag-Luc and Tag mice. Frozen sections were stained with antiluciferase and anti-XBP1 (top left two panels), anti-luciferase and anti-BiP (bottom left two panels), anti-luciferase and anti-eIF2α (top right two panels), or the control secondary antibodies (bottom right two panels).
(§2) (B) is a bar graph of in vitro XBP1-luc activity in preparations of spontaneous primary tumors from Tag and Tag-Luc mice cultured under normoxic or hypoxic conditions for 48 h. (C) Left panel: are photographs with overlays of in vivo bioluminescence in Tag-Luc mice treated with vehicle or 50 mg/kg DCA (dichloroacetic acid) b.i.d. for 2 days. Bioluminescence was measured after 32 hours. Right panel: is a bar graph of in vivo bioluminescence as shown in the left panel of FIG. 5C and is the average of two experiments. (D) is a bar graph of in vitro luciferase activity in HT1080 cells containing CMV, XBP1, or ATF4-luciferase reporters after treatment with 2-DG, DCA, or glucose deprivation. Luciferase activity was measured after 24 hours.
This reporter construct was tested in vitro. The human fibrosarcoma cell line HT1080 was obtained from ATCC (Manassas, Va.). Cells were maintained at 37° C. with 5% CO2 in DMEM supplemented with 10% FBS and 1% penicillin-streptomycin antibiotics. HT1080 cells (FIG. 1A, lower panel) were stably transfected with the XBP1-Luc construct. […]

XBP1-Luc construct = assay: XBP1-luc reporter luciferase activity in HT1080 cells; format: cell-based, human; details: for UPR reporter activity, XBP1-luc construct: HT1080 cells, luciferase activity measured after 24 hours
Description: as §1
as §2, with “(D) is a bar graph of in vitro luciferase activity in HT1080 cells containing CMV, XBP1, or ATF4-luciferase reporters after treatment with 2-DG, DCA, or glucose deprivation.” left out
The first 208 amino acids of the unspliced human XBP1-1 was amplified by PCR and subcloned into pEGFP-N1 (Clontech, Mountain View, Calif.). This plasmid was subsequently digested with Bam HI and Not Ito remove the EGFP and a PCR-generated firefly luciferase gene was cloned downstream of the XBP1-1 gene such that the luciferase gene was in frame only in the “spliced” reading frame. […]

XBP1-luc activity [2] = assay: In vivo bioluminescence of primary tumors in Tag-Luc mice
Description: Mice were injected with fluorescently-labeled 2-DG or RGD peptide or dye alone and imaged 24 hours later for in vivo bioluminescence and 2-DG, RGD peptide, and dye uptake. Dark arrows indicate tumors with high in vivo bioluminescence and light arrows indicate tumors with low in vivo bioluminescence. (B) is a plot of 2-DG signal against in vivo bioluminescence for the mice imaged in FIG. 4(A). (C) is a bar graph of in vivo bioluminescence in autochthonous tumors after 24 hours of glucose deprivation. (D) Left panel: are photographs with overlays of in vivo bioluminescence of Tag-Luc mice at 0 and 12 hours after treatment with 2 mg of 2-DG or vehicle i.p. Arrows indicate palpable tumors. […]
(B) is a bar graph of in vitro XBP1-luc activity in preparations of spontaneous primary tumors from Tag and Tag-Luc mice cultured under normoxic or hypoxic conditions for 48 h. […] Bioluminescence was measured after 32 hours. […] Luciferase activity was measured after 24 hours.
In vivo bioluminescence, which corresponds to XBP1-Luc activity, was detected noninvasively using the IVIS imaging system (Caliper LifeSciences, Hopkinton, Mass.). […] Image analysis and quantification was performed using Living Image software (Caliper LifeSciences, Hopkinton, Mass.). All images were analyzed with a binning of 10. […]

In the case of tunicamycin, the “XBP1-luc activity in Hi and Lo tumors” value (XBP1-luc activity [1]) is reported as “increased”, the ATF4-Luc reporter induction (ATF4-Luc; 10 μg/ml tunicamycin, 24 hours) is reported as “also induced” and the “luciferase activity, XBP1-Luc cells” value (XBP1-Luc construct; HT1080 cells stably transfected with XBP1-Luc, 10 μg/ml tunicamycin, 24 hours, compared to CMV-Luc control cells) is reported as “strongly induced luciferase activity”.

In the case of `O=CC[C@@H](O)[C@H](O)[C@H](O)CO` [Compound 2-DG, 2-deoxy-d-glucose], the “UPR reporter activity, ATF4-luc construct” value (ATF4-Luc) is reported as “did induce UPR reporter activity”, the “UPR reporter activity, XBP1-luc construct” value (XBP1-Luc construct) is reported as “did induce UPR reporter activity” and the “increase in tumor bioluminescence compared to control mice” value (XBP1-luc activity [2]; Tag-Luc mice, 2 mg 2-DG i.p., 12 hours, p=0.01) is reported as 1.78 fold.

`O=C(O)C(Cl)Cl` [DCA, dichloroacetic acid] was tested, and the “UPR reporter activity, ATF4-luc construct” value (ATF4-Luc) was “did not induce UPR reporter activity”, the “UPR reporter activity, XBP1-luc construct” value (XBP1-Luc construct) was “did not induce UPR reporter activity” and the “increase in bioluminescent signal of primary Tag-Luc tumors” value (XBP1-luc activity [2]; repeated injections, 50 mg/kg b.i.d. for 2 days, measured after 32 hours) was 2.0 fold.
